From US20220117949A1, “LTA4H INHIBITORS FOR THE TREATMENT OF HIDRADENITIS SUPPURATIVA” (NOVARTIS AG, priority 2019, published 2022)

Columns and labels:
[1] = tested on: LTB4 biosynthesis in lesional skin biopsies of HS patients; assay: LTB4 biosynthesis in ionophore-stimulated skin biopsies of HS patients (LC-MS/MS); assay type: cell-based, human; conditions: 5 uM inhibitor 2 h, then 2 h 10 ug/mL ionophore
Experimental: Frozen human skin biopsies from healthy skin or discard HS lesions (on average 500 mg) were pulverized using mechanical force (Covaris) and homogenized in 4 mL of methanol containing deuterium labelled internal standards (ISTDs) using a bead-beating device (2×20 sec cycles of 5000 rpm, Precellys) maintained at low temperature. Then, samples were kept at −20° C./45 min to allow for protein precipitation and centrifuged at 13000 rpm for 10 min at 4° C. The supernatants were then evaporated (Genevac) until complete dryness and reconstituted in 70 μL of methanol:water (50%/50%; v/v) followed by injection in the LC-MS/MS system. Calibration curves were freshly prepared by serial dilution of pure standards in methanol:water (50%/50%, v/v) containing ISTDs and quantitation was done by comparing metabolite to ISTD peak area ratios in samples to that of calibrators.
Two analytical platforms were employed for data acquision depending on instrument availability: 1) Waters H class UPLC system coupled to a Waters XevoTQS triple quadrupole mass (QQQ) spectrometer and 2) a Dionex Ultimate 3000RS UPLC coupled to a Sciex6500+ QQQ. Separation of lipids was achieved using reverse-phase columns ACQUITY UPLC BEH C18 1.7 μm, 2.1×50 mm and CORTECS UPLC C18 1.6 μm, 2.1×50 mm heated at 40° C., respectively. The flow rate was set to 0.180 mL/min and the mobile phase consisted of water-acetic acid (99.99/0.01; v/v) (A) and methanol-acetonitrile-acetic acid (B) (50/50/0.01; v/v/v). The eluent gradient was maintained at 45% of B for 2 min, follow by 45%-65% of B during 2-16 min, from 65%-100% during 16-19 min and 100% of B from 19-22 min. From 23-30 min the column was re-equilibrated with initial conditions. Ionization was performed using an ESI source operated in negative ion mode. Fragmentation was tuned for each compound individually.
. Skin biopsies were then harvested, lipids extracted and analyzed for generation of LTB4 by LC-MS/MS as described above. Stimulated skin biopsies of HS lesions generated a large amount of the lipid mediator LTB4. […]. (FIGS. 10 and 11)
Lesional skin biopsies of HS patients were left untreated or fully stimulated with ionophore to induce LTB4 biosynthesis in the presence or absence of a LTA4H inhibitor
LTB4 quantities are given in fmol/mg tissue. Shown are representative results obtained with one donor per compound out of several tested.

[2] = First in human trial Part 1 (SAD): plasma pharmacokinetics
Text: (§1) The study consisted of a part 1, single ascending dose (SAD) and a part 2 multiple ascending dose (MAD).
(§2) Part 1 was a randomized, subject-blinded and Investigator-partial-blinded, placebo-controlled, single ascending oral dose study.

clinical = conditions: for mean concentration in blister fluid: pre-dose on Day 9
Text: In parts 1 and 2 of the clinical study (SAD and MAD), skin blisters were induced on the arm of subjects in selected cohorts.
(§3) Blister fluid samples were collected at Day 1 pre-dose and Day 2 pre-dose in SAD cohort 4 as well as Day 1 pre-dose and Day 9 predose in MAD cohort 2-5.

[3] = First in human trial (SAD/MAD): safety and tolerability in healthy subjects
Experimental: as §1, §2
(§4) Cohort 1: multiple once daily (qd) oral dose of 5 mg or matching placebo Cohort 2: multiple once daily (qd) oral dose of 15 mg or matching placebo Cohort 3: multiple oral daily dose of 20 mg or matching placebo administered twice daily (bid) Cohort 4: multiple oral daily dose of 40 mg or matching placebo administered twice daily (bid) Cohort 5: multiple oral daily dose of 80 mg or matching placebo administered twice daily (bid) Part 2 Multiple Ascending Dose Design (qd)—Overview of the Study Part 2 Multiple Ascending Dose Design (Bid)—Overview of the Study

[4] = tested on: LTB4 in human skin blister fluids; assay: LTB4 in cantharidin induced skin blister fluid (FIH); assay type: in vivo; conditions: 40 mg daily dose (20 mg BID)
Experimental: In parts 1 and 2 of the clinical study (SAD and MAD), skin blisters were induced on the arm of subjects in selected cohorts. For this 10 mm diameter filter paper discs humected with a solution of cantharidin (such as cantharone) were applied on the arm of the subject, inducing an epidermal blister, and the blister fluid was collected approximately 24 hours (+/−1 hr) after the application.
as §3
Blister fluid samples were received frozen on dry ice and stored at −70° C. or below until analysis. On the day of analysis, samples were taken out of the freezer and immediately extracted after Thawing.
90 μL of blister fluid (sample or QC sample) was enriched with 5 μL of internal standard solution IS-L-2 (deuterated Leukotrienes and lipoxin at 50 ng/mL) and vortexed in a micro centrifuge tube. 90 μL of methanol with 0.1% formic acid was added. This was followed by 5 minutes vortex mixing and 10 minutes sonication on ice. The samples were incubated at −20° C. in a freezer for 40 minutes. This was followed by centrifugation at 16,000 rpm (27,500×g) at 4° C. for 20 minutes. 160 μL of the supernatant was transferred onto Millipore 5 kDa MWCO filters. MWCO filters have previously been cleaned by centrifuging 500 μL methanol/water 1/1 thru the filters. […]

[5] = First in human trial Part 2 (MAD): plasma pharmacokinetics
Experimental: as §1, §4

[6] = tested on: Leukotriene B4 (LTB4) in blood; assay: Leukotriene B4 (LTB4) in human plasma of ex vivo stimulated whole blood (FIH PD biomarker, LC-MS/MS)
Experimental: Therefore, LTB4 concentrations were determined in plasma of ex-vivo stimulated whole blood by a LC-MS/MS method.
Ex-vivo stimulation was performed at the clinical site according to the following procedure: Whole blood (500 μL) were stimulated for 30 min using Calcium Ionophore A23187.
Human plasma was processed with organic precipitation followed by separation by reverse phase high performance liquid chromatography with tandem mass spectrometric detection.
AB Sciex QTrap 5500 MS/MS Turbo Spray Ion Drive negative ion mode.
Sample from each subject and time point was prepared and analyzed in three aliquots. Aliquot one and two contained plasma from ex-vivo stimulated whole blood, while aliquot three as negative control contained plasma from non-stimulated whole blood.
LTB4 concentration data were calculated as mean of concentration of aliquot one and two. Concentration of aliquot three was not be included in the calculation. The change from baseline and percent inhibition (percent of baseline) for each biomarker was calculated. Baseline was the mean of the Baseline and Day 1, −1 h measurements.

[7] = 5 mg qd to 80 mg bid (16-fold per dosing interval)

## N[C@@H](CC(=O)O)Cn1nnc(-c2ccc(Oc3ccc(Cl)cc3)cc2)n1 [compound of embodiment 3D, (S)-3-amino-4-(5-(4-(4-chlorophenoxy)-phenyl)-2H-tetrazol-2-yl)butanoic acid]
[1]
  LTB4 generation by stimulated skin biopsies of HS lesions: almost no LTB4
[1]; listed as Compound of embodiment 3D
  LTB4 generation by stimulated skin biopsies of HS lesions: suppresses

## N[C@@H](CC(=O)O)Cn1nnc(-c2ccc(Oc3ncc(Cl)cc3F)cc2)n1 [compound of example 1, (S)-3-amino-4-(5-(4-((5-chloro-3-fluoropyridin-2-yl)oxy)phenyl)-2H-tetrazol-2-yl)butanoic acid]
[2]; 5 mg to 2 times 100 mg
  dose proportionality of AUClast over the whole dose range: demonstrated
[2]; 40-fold increase in daily dose (5 mg to 100 mg bid)
  AUC0-24 h increase with dose: 75 fold
[2]; SAD
  increase in dose over which AUC0-24 h can be considered dose proportional: ≤ 2.57 fold
  increase in dose over which Cmax can be considered dose proportional: up to 4.50 fold
[2]; dose increase from 5 to 100 mg (20-fold)
  Cmax increase with dose: 21.7 fold
[2]; human, in vivo, po
  Tmax: 1 to 1.5 h
  half-life: 245 to 513 h
clinical; Part 2, 15 mg qd
  mean concentration in blister fluid: 4.62 ng/mL
clinical; Part 2, 80 mg bid
  mean concentration in blister fluid: 233 ng/mL
clinical; human, in vivo, 30 mg
  Kp at 24 h: 0.14
  concentration at 24 h: 4.67 ng/mL
[3]; SAD and MAD, healthy subjects
  findings in physical exam, vital signs or ECGs related to compound: No significant findings
[3]; SAD up to 200 mg total daily dose, MAD up to 80 mg BID for 12 days
  maximal tolerated dose: no maximal tolerated dose was established
[3]; SAD up to 2 x 100 mg, MAD up to 80 mg BID for 12 days, healthy subjects
  adverse events leading to study discontinuation: No adverse events led to study discontinuation
[3]; doses up to 80 mg bid (160 mg daily dose) over 12 days, healthy subjects
  tolerability: well tolerated
[3]; one SAD 5 mg, two MAD 80 mg BID, asymptomatic, transient
  treated subjects with increases in lipase: Three
[3]; the three subjects with lipase elevations, mild
  amylase increase accompanying lipase increase: ≤ 1.5 ULN
[1]
  LTB4 generation by stimulated skin biopsies of HS lesions: almost no LTB4
[1]; listed as Compound of Example 1
  LTB4 generation by stimulated skin biopsies of HS lesions: suppresses
[4]
  suppression of LTB4 in human skin blister fluids: 90%
[5]; [7]
  AUC on Day 12 (AUC0-12 h,ss bid; AUC0-24 h,ss qd) increase with dose: 20.9 fold
  Cmax on Day 12 increase with dose: 17.9 fold
[5]; BID oral dosing, fed state
  time to reach steady state exposure: 3 to 4 days
[5]; MAD
  increase in dose over which AUCtau can be considered dose proportional: ≤ 6.29 fold
  increase in dose over which Cmax,ss can be considered dose proportional: up to 2.12 fold
[5]; all higher doses (above 5 mg qd)
  accumulation to steady state: ≤ 1.4 fold
[5]; day 1 of the bid regimen
  mean Racc, day 1: 1.09-1.29
[5]; lowest dose of 5 mg qd
  mean accumulation to steady state: 2.1 fold
[5]; morning pre-dose concentrations, MAD
  time at which steady state is achieved: ~3 days
[5]; steady state, 5 mg qd to 40 mg bid
  dose proportionality criteria for AUCtau: met
[6]; 40 mg daily dose (20 mg BID)
  suppression of LTB4 in blood at steady state: nearly complete suppression
[6]; SAD 5 mg, at 24 hours
  blood cell stimulated LTB4 release, reduction from baseline: 25-50%
